Experimental findings from patent US9249129B2, “Morpholino substituted urea derivatives as mTOR inhibitors” (CELLZOME LIMITED, priority 2010, dated 2016) are described below.

Where two headings read alike, the source gives them in different places.

Experiment [1] deals with T1, mTOR (Homo sapiens, UniProt P42345).
T1 construct: endogenous in cells; host or cells: Jurkat cells (ATCC TIB-152, clone E6-1), lysate
As to the kind of experiment: mTOR kinobeads assay (dot blot detection). The experiment is classed as binding. Summed up:
(§1)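 Jurkat cell lysate (5 mg/mL protein) incubated 2 h in the cold with test compound (9-step 1:3 series) and immobilized phenylthiazole/phenylmorpholin-chromen ligand beads. Bead-bound kinases eluted, detected by specific antibody dot blot with infrared readout; IC50 from dose-response curves.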

For experiment [2], the target named is T2, PI3K delta (PI3Kd) (Homo sapiens, UniProt O00329).
T2 construct: endogenous in cells; host or cells: Jurkat cells (ATCC TIB-152, clone E6-1), lysate
As to the kind of experiment: kinobeads assay, PI3K delta (dot blot detection). It counts as binding. The method in brief:
as §1

Experiment [3] has as its target T3, DNA-dependent protein kinase (DNA-PK) (Homo sapiens, UniProt P78527).
T3 construct: endogenous in cells; host or cells: Jurkat cells (ATCC TIB-152, clone E6-1), lysate
As to the kind of experiment: kinobeads assay, DNA-PK (dot blot detection). It counts as binding. The method in brief:
as §1

The target of experiment [4] is T4, PI3Kα (Homo sapiens, UniProt P42336).
T4 construct: endogenous in cells; host or cells: Jurkat cells (ATCC TIB-152) lysate, the only lysate described
As to the kind of experiment: kinobeads assay, PI3K alpha (dot blot detection). The following applies: Table 4, read-out: Inhibition values (IC50) PI3Ka. It counts as binding.

Experiment [5] addresses T5, PI3Kβ (Homo sapiens, UniProt P42338).
T5 construct: endogenous in cells; host or cells: Jurkat cells (ATCC TIB-152) lysate, the only lysate described
As to the kind of experiment: kinobeads assay, PI3K beta (dot blot detection). The experiment is classed as binding. The following applies: Table 4, read-out: Inhibition values (IC50) PI3Kb.

The target in experiment [6] is T6, PI3Kγ (Homo sapiens, UniProt P48736).
T6 construct: endogenous in cells; host or cells: Jurkat cells (ATCC TIB-152) lysate, the only lysate described
As to the kind of experiment: kinobeads assay, PI3K gamma (dot blot detection). It counts as binding. The following applies: Table 4, read-out: Inhibition values (IC50) PI3Kg.

Experiment [7] has as its system S6RP serine-240/244 phosphorylation in HEK293T/17 cells. As to the kind of experiment: In vitro phospho-S6 cellular assay (pS6RP S240/244). It counts as cell-based. The following applies: Homo sapiens, Table 6, 2 hours, S6RP Ser240/244, read-out: pS6 (phospho-S6 cell assay data, activity level). The method in brief: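 HEK293T/17 cells in DMEM with 2% FCS treated with 8 compound concentrations (0.1% DMSO) for 2 h at 37 °C, then lysed. Phospho-S6RP Ser240/244 or phospho-Akt Ser473 quantified by MesoScale sandwich immunoassay with Sulfo-Tag detection; IC50 from variable-slope sigmoidal fit.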

Where [8] appears, read: Table 4, read-out: Inhibition values (IC50) mTOR.
Where [9] appears, read: Table 4, read-out: Inhibition values (IC50) PI3Kd.
Setting [10] is: Table 4, read-out: Inhibition values (IC50) DNAPK.
Where [11] appears, read: Table 2, Jurkat cell lysate, read-out: Inhibition values (IC50) mTor.
The mark [12] stands for this setting: Table 2, Jurkat cell lysate, read-out: Inhibition values (IC50) PI3Kd.
The mark [13] stands for this setting: Table 2, Jurkat cell lysate, read-out: Inhibition values (IC50) DNAPK.

T2 sequence (O00329 whole entry): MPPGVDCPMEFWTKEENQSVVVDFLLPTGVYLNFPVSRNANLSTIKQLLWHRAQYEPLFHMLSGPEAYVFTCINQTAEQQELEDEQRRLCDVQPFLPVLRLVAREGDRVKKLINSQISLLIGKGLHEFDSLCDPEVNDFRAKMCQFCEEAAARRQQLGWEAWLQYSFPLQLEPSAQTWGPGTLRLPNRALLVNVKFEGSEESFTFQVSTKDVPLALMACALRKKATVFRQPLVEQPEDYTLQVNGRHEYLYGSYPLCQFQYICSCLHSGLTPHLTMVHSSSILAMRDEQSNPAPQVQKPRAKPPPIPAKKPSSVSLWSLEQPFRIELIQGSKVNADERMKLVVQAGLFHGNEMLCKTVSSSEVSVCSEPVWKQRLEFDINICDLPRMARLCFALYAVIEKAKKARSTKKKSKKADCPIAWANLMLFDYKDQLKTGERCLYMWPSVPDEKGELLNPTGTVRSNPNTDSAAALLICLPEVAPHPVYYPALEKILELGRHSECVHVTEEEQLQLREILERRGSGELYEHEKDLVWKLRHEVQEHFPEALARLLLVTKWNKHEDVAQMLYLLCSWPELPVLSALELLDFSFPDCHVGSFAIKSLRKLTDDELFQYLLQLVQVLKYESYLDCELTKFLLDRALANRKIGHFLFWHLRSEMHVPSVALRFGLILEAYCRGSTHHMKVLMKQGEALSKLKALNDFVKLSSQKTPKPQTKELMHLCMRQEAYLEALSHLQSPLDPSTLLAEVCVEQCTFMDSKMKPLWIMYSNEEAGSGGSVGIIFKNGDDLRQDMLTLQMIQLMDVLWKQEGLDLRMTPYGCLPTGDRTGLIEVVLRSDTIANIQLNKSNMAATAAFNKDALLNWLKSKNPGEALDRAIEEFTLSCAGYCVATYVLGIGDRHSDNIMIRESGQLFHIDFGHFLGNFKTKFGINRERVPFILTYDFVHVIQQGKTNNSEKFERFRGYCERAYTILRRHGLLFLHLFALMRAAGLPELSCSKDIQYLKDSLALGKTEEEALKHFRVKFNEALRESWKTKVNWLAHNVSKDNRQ
T2 sequence (P27986 whole entry partner): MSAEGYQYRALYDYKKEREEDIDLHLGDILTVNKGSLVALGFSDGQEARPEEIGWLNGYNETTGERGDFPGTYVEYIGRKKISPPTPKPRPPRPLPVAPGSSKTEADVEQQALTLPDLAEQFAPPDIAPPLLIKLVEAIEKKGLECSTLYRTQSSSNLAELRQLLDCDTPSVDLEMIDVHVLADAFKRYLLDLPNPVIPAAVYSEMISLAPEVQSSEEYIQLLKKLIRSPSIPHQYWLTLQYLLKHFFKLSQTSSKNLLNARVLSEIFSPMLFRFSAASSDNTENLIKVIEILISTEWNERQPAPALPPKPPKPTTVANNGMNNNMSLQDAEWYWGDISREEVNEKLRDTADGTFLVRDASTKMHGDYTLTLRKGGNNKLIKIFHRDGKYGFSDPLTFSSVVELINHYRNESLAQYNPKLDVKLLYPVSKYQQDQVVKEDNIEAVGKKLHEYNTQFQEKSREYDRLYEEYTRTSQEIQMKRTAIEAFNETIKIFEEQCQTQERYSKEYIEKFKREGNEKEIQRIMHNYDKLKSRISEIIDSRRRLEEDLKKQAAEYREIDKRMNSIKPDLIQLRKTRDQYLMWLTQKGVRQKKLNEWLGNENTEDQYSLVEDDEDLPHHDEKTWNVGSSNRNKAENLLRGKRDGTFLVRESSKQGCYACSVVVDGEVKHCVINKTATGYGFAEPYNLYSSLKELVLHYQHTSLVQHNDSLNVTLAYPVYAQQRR
T4 sequence (P42336 whole entry): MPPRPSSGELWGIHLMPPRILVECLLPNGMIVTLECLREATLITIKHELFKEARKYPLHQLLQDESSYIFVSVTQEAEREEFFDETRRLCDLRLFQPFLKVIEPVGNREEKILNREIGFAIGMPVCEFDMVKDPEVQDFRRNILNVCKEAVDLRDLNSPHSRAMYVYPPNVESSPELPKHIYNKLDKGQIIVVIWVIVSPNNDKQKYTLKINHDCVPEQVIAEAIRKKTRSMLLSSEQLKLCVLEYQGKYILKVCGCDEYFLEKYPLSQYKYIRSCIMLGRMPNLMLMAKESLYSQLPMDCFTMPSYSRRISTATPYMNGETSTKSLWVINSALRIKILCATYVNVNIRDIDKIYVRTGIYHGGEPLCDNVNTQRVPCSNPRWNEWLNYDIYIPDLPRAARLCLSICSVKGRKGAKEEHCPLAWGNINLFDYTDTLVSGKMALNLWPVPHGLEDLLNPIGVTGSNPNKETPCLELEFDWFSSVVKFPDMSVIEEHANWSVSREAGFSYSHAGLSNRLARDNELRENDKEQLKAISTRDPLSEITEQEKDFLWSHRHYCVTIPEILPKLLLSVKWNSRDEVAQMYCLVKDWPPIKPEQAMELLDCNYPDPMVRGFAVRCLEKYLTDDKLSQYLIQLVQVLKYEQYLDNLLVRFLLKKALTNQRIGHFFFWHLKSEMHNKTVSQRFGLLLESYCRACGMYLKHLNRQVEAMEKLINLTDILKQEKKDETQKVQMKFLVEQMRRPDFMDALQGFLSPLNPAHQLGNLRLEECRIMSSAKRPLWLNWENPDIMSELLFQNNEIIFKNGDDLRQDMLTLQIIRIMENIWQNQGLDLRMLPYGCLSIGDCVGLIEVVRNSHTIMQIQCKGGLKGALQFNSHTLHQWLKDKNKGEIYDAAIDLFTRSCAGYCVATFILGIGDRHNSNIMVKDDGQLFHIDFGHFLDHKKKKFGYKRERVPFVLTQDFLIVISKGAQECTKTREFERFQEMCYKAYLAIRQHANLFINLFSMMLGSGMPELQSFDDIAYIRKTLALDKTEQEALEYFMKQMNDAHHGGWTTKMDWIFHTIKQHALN
T4 sequence (P27986 whole entry partner): as the sequence (P27986 whole entry partner) above
T6 sequence (P48736 whole entry): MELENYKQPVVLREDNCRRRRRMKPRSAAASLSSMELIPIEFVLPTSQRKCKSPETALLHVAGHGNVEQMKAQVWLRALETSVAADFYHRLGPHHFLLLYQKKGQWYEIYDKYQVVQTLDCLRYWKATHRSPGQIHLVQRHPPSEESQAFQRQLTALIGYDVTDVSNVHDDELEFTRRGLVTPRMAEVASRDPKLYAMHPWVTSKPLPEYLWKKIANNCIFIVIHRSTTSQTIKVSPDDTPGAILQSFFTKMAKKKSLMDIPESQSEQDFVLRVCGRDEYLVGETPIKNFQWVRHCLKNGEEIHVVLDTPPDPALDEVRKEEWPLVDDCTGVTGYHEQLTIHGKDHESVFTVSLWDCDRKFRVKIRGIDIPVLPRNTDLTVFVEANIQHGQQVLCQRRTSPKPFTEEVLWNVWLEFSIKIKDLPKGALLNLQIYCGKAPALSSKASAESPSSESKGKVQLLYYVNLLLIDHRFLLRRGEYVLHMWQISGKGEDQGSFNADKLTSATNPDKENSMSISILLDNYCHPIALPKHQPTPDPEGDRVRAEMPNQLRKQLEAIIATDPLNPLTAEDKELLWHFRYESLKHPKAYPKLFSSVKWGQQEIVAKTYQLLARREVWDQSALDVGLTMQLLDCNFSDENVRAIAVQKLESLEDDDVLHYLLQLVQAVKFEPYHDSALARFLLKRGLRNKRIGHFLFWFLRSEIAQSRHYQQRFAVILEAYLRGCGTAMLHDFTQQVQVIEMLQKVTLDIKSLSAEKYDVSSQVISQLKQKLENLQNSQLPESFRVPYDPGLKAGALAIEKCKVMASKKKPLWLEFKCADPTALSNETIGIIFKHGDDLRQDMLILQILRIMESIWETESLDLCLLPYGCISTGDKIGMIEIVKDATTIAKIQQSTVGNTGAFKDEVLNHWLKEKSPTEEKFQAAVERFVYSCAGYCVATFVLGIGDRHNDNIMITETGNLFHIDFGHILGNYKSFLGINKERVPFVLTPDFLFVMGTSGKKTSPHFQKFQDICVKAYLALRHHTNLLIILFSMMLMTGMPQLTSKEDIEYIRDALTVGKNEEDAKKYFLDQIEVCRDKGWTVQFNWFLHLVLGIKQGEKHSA
T5 sequence (P42338 whole entry): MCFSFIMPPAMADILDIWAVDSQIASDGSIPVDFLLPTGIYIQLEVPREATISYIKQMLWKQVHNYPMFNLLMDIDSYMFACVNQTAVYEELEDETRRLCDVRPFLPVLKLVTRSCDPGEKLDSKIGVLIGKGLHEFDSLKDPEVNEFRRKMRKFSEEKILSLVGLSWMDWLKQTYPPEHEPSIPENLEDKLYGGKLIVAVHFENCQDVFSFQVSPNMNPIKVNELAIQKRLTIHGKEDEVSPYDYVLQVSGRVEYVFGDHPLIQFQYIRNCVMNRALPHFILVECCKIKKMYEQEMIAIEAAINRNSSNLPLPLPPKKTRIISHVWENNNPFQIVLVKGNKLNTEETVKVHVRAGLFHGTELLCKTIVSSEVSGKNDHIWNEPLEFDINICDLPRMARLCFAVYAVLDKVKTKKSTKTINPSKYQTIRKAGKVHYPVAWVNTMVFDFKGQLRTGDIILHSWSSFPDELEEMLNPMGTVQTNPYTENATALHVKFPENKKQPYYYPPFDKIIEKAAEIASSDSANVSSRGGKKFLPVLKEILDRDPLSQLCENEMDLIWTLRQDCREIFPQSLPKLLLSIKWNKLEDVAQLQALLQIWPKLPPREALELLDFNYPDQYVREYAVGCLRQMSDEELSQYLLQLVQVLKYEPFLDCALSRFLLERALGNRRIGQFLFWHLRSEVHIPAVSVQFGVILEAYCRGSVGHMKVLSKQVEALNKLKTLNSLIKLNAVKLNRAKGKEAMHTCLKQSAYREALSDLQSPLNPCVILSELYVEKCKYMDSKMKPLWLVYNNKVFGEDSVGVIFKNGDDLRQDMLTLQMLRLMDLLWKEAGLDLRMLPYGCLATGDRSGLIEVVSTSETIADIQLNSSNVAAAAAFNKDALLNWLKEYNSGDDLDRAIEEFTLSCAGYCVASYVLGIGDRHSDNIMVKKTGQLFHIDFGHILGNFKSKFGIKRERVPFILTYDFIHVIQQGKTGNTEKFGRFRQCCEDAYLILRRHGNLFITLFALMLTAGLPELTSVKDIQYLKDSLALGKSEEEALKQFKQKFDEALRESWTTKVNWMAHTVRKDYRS
T5 sequence (P27986 whole entry partner): as the sequence (P27986 whole entry partner) above

With `C[C@H]1COCCN1c1cc(-c2ccccc2S(C)(=O)=O)nc(-c2ccc(NC(=O)NCCO)cc2)n1` [Example 80, (S)-1-(2-hydroxyethyl)-3-(4-(4-(3-methylmorpholino)-6-(2-(methylsulfonyl)phenyl)pyrimidin-2-yl)phenyl)urea], the IC50 was below 0.1 µM in experiment [1] (setting [8]); at least 10 µM in experiment [2] (setting [9]); at least 10 µM in experiment [3] (setting [10]); at least 10 µM in experiment [4]; at least 10 µM in experiment [5]; at least 10 µM in experiment [6]. For the same compound, in experiment [7], the IC50 was below 0.1 µM.

As to `C[C@H]1COCCN1c1ccnc(-c2ccc(NC(=O)NCC(F)F)cc2)n1` [Example 54, (S)-1-(2,2-difluoroethyl)-3-(4-(4-(3-methylmorpholino)pyrimidin-2-yl)phenyl)urea], the IC50 in experiment [1] (setting [11]) was 0.1 to 1 µM; in experiment [1] (setting [8]), 0.1 to 1 µM; in experiment [2] (setting [12]), at least 10 µM; in experiment [2] (setting [9]), at least 10 µM; in experiment [3] (setting [13]), at least 10 µM; in experiment [3] (setting [10]) it was at least 10 µM. Moreover, the IC50 in experiment [4] was at least 10 µM; in experiment [5], at least 10 µM; in experiment [6], at least 10 µM; in experiment [7], 0.1 to 1 µM.

Regarding `CS(=O)(=O)c1ccc(F)cc1-c1cc(-c2ccc(NC(=O)NC3CC3)cc2)nc(N2CC3CCC(C2)O3)n1` [Example 81, 1-(4-(2-(8-oxa-3-azabicyclo[3.2.1]octan-3-yl)-6-(5-fluoro-2-(methylsulfonyl)phenyl)pyrimidin-4-yl)phenyl)-3-cyclopropylurea], the IC50 was 0.1 to 1 µM in experiment [1] (setting [8]); at least 10 µM in experiment [2] (setting [9]); at least 10 µM in experiment [3] (setting [10]); at least 10 µM in experiment [4]; at least 10 µM in experiment [5]; at least 10 µM in experiment [6]. Further, the IC50 in experiment [7] is below 0.1 µM.

As to `C[C@H]1COCCN1c1cc(-c2cncc(F)c2)nc(-c2ccc(NC(=O)NCCF)cc2F)n1` [Example 67, (S)-1-(3-fluoro-4-(4-(5-fluoropyridin-3-yl)-6-(3-methylmorpholino)pyrimidin-2-yl)phenyl)-3-(2-fluoroethyl)urea], the IC50 in experiment [1] (setting [11]) is 1 to 10 µM; in experiment [1] (setting [8]), 1 to 10 µM; in experiment [2] (setting [12]), at least 10 µM; in experiment [2] (setting [9]), at least 10 µM; in experiment [3] (setting [13]), at least 10 µM; in experiment [3] (setting [10]) it was at least 10 µM. Further, the IC50 in experiment [4] is at least 10 µM; in experiment [5], at least 10 µM; in experiment [6], at least 10 µM; in experiment [7], 0.1 to 1 µM.

As to `C[C@H]1COCCN1c1nc(-c2ccc(NC(=O)NC3CC3)cc2)cc(-c2ccccc2S(=O)(=O)N2CCCC2)n1` [Example 88, (S)-1-cyclopropyl-3-(4-(2-(3-methylmorpholino)-6-(2-(pyrrolidin-1-ylsulfonyl)phenyl)pyrimidin-4-yl)phenyl)urea], the IC50 was 1 to 10 µM in experiment [1] (setting [8]); at least 10 µM in experiment [2] (setting [9]); at least 10 µM in experiment [3] (setting [10]); at least 10 µM in experiment [4]; at least 10 µM in experiment [5]; at least 10 µM in experiment [6]. Further, in experiment [7], the IC50 was below 0.1 µM.

As for `O=C(Nc1ccc(-c2nccc(N3CCOCC3)n2)cc1)NC1CC1` [Example 26, 1-cyclopropyl-3-(4-(4-morpholinopyrimidin-2-yl)phenyl)urea], the IC50 in experiment [1] (setting [11]) is 0.1 to 1 µM; in experiment [1] (setting [8]), 0.1 to 1 µM; in experiment [2] (setting [12]) it was at least 10 µM; in experiment [2] (setting [9]), at least 10 µM; in experiment [3] (setting [13]), 1 to 10 µM; in experiment [3] (setting [10]) it was 1 to 10 µM. For the same compound, the IC50 in experiment [4] was at least 10 µM; in experiment [5], 1 to 10 µM; in experiment [6], at least 10 µM; in experiment [7], 0.1 to 1 µM.

Regarding `CNC(=O)Nc1ccc(-c2ccnc(N3CCOCC3)n2)cc1` [Example 30, 1-methyl-3-(4-(2-morpholinopyrimidin-4-yl)phenyl)urea], the IC50 in experiment [1] (setting [11]), in experiment [1] (setting [8]), in experiment [2] (setting [12]), in experiment [2] (setting [9]), in experiment [3] (setting [13]) and in experiment [3] (setting [10]) was 1 to 10 µM throughout. In addition, the IC50 was 1 to 10 µM in experiment [4], 1 to 10 µM in experiment [5], at least 10 µM in experiment [6] and 1 to 10 µM in experiment [7].

As to `O=C(NCC(F)F)Nc1ccc(-c2nccc(N3CC4CCC(C3)O4)n2)cc1` [Example 51, 1-(4-(4-(8-oxa-3-azabicyclo[3.2.1]octan-3-yl)pyrimidin-2-yl)phenyl)-3-(2,2-difluoroethyl)urea], the IC50 in experiment [1] (setting [11]) was 0.1 to 1 µM; in experiment [1] (setting [8]), 0.1 to 1 µM; in experiment [2] (setting [12]), at least 10 µM; in experiment [2] (setting [9]), at least 10 µM; in experiment [3] (setting [13]), 1 to 10 µM; in experiment [3] (setting [10]), 1 to 10 µM. The IC50 in experiment [4] is at least 10 µM; in experiment [5], at least 10 µM; in experiment [6], at least 10 µM; in experiment [7], 0.1 to 1 µM.

As to `C[C@H]1COCCN1c1cc(-c2cncc(F)c2)nc(-c2ccc(NC(=O)NCCO)cc2F)n1` [Example 65, (S)-1-(3-fluoro-4-(4-(5-fluoropyridin-3-yl)-6-(3-methylmorpholino)pyrimidin-2-yl)phenyl)-3-(2-hydroxyethyl)urea], the IC50 in experiment [1] (setting [11]) was 0.1 to 1 µM; in experiment [1] (setting [8]) it was 0.1 to 1 µM; in experiment [2] (setting [12]), at least 10 µM; in experiment [2] (setting [9]), at least 10 µM; in experiment [3] (setting [13]), at least 10 µM; in experiment [3] (setting [10]) it was at least 10 µM. Besides, the IC50 in experiment [4] was at least 10 µM; in experiment [5] it was at least 10 µM; in experiment [6] it was at least 10 µM; in experiment [7], 0.1 to 1 µM.

On to `C[C@H]1COCCN1c1ccnc(-c2ccc(NC(=O)NCCF)cc2)n1` [Example 55, (S)-1-(2-fluoroethyl)-3-(4-(4-(3-methylmorpholino)pyrimidin-2-yl)phenyl)urea], for which the IC50 was 0.1 to 1 µM in experiment [1] (setting [11]); 0.1 to 1 µM in experiment [1] (setting [8]); at least 10 µM in experiment [2] (setting [12]); at least 10 µM in experiment [2] (setting [9]); at least 10 µM in experiment [3] (setting [13]); at least 10 µM in experiment [3] (setting [10]). The IC50 in experiment [4] was at least 10 µM; in experiment [5], at least 10 µM; in experiment [6] it was at least 10 µM; in experiment [7], 0.1 to 1 µM.

As to `C[C@H](O)CNC(=O)Nc1ccc(-c2cc(-c3cc(F)ccc3S(C)(=O)=O)nc(N3CCOC[C@@H]3C)n2)cc1` [Example 83, 1-(4-(6-(5-fluoro-2-(methylsulfonyl)phenyl)-2-((S)-3-methylmorpholino)pyrimidin-4-yl)phenyl)-3-((S)-2-hydroxypropyl)urea], the IC50 in experiment [1] (setting [8]) was 0.1 to 1 µM; in experiment [2] (setting [9]), at least 10 µM; in experiment [3] (setting [10]), at least 10 µM; in experiment [4] it was at least 10 µM; in experiment [5], at least 10 µM; in experiment [6] it was at least 10 µM. Further, in experiment [7], the IC50 was below 0.1 µM.
